Test results as given in PubChem BioAssay AID298 (DTP/NCI, 2004).
Where “and” joins values, the source holds several entries; their conditions need not be identical. Equal values may be shown once. Records with an inconclusive call do not appear.

System: MX-1 breast xenograft, intrarenal, nude mice, tumor weight
Assay: NCI In Vivo Anticancer Drug Screen. Data for tumor model Human Mammary Carcinoma MX-1 Xenograft (intrarenal inoculation) in NU/NU BALB/C (nude) mice
Conditions: endpoint: mean tumor weight change, higher = larger tumour
Summary of the method: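 Transplantable tumors established in mice; animals dosed with compound or vehicle; survival or tumor size then recorded. Result reported as treated (T) divided by vehicle control (C).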

[1] = dose: 150.0 mg/kg/injection, schedule: Q04DX003 (ip), vehicle: DMSO
[2] = dose: 300.0 mg/kg/injection, schedule: Q04DX003 (ip), vehicle: DMSO
[3] = dose: 600.0 mg/kg/injection, schedule: Q04DX003 (ip), vehicle: DMSO
[4] = dose: 400.0 mg/kg/injection, schedule: Q04DX003 (ip), vehicle: Klucel (hydroxypropylcellulose) (HPC)
[5] = dose: 150.0 mg/kg/injection, schedule: Q04DX003 (ip), vehicle: saline with Tween-80
[6] = dose: 300.0 mg/kg/injection, schedule: Q04DX003 (ip), vehicle: saline with Tween-80
[7] = dose: 300.0 mg/kg/injection, schedule: Q04DX003 (ip), vehicle: saline
[8] = dose: 600.0 mg/kg/injection, schedule: Q04DX003 (ip), vehicle: saline

## CC(CNC(=O)C12CC3CC(CC(C3)C1)C2)NC(=O)C12CC3CC(CC(C3)C1)C2 (configuration not stated)
dose: 75.0 mg/kg/injection, schedule: Q04DX003 (ip), vehicle: DMSO
  T/C: 82 % of control
[1]
  T/C: 95 % of control
[2]
  T/C: 106 % of control
[3]
  T/C: 105 % of control

## CNC(=S)SC1=NS(=O)(=O)c2ccccc2N1
dose: 200.0 mg/kg/injection, schedule: Q04DX003 (ip), vehicle: Klucel (hydroxypropylcellulose) (HPC)
  T/C: 179 % of control
[4]
  T/C: 165 % of control

## COc1ccc(C[C@@H]2NC[C@@H](O)[C@@H]2OC(C)=O)cc1
[5]
  T/C: 78 % of control
[6]
  T/C: 110 % of control

## COC(=O)c1ccc(N=NN(C)COC(C)=O)cc1
dose: 60.0 mg/kg/injection, schedule: Q04DX003 (ip), vehicle: Klucel (hydroxypropylcellulose) (HPC)
  T/C: 50 % of control
dose: 120.0 mg/kg/injection, schedule: Q04DX003 (ip), vehicle: Klucel (hydroxypropylcellulose) (HPC)
  T/C: 21 % of control
[4]
  T/C: 56 % of control and 58 % of control
dose: 666.67 mg/kg/injection, schedule: Q04DX003 (ip), vehicle: Klucel (hydroxypropylcellulose) (HPC)
  T/C: 33 % of control and 40 % of control

## CN(CO)c1nc(N(C)CO)nc(N(C)CO)n1
dose: 6.25 mg/kg/injection, schedule: Q01DX010 (sc), vehicle: saline
  T/C: 86 % of control
dose: 12.5 mg/kg/injection, schedule: Q01DX010 (sc), vehicle: saline
  T/C: 30 % of control
dose: 25.0 mg/kg/injection, schedule: Q01DX010 (sc), vehicle: saline
  T/C: 2 % of control
dose: 100.0 mg/kg/injection, schedule: Q01DX010 (sc), vehicle: saline
  T/C: 1 % of control

## COc1ccc([C@@]23Oc4cc(OC)cc(OC)c4[C@]2(O)[C@H](O)[C@H](C(=O)N(C)C)[C@H]3c2ccccc2)cc1
dose: 2.0 mg/kg/injection, schedule: Q04DX003 (ip), vehicle: Klucel (hydroxypropylcellulose) (HPC)
  T/C: 92 % of control
dose: 4.0 mg/kg/injection, schedule: Q04DX003 (ip), vehicle: Klucel (hydroxypropylcellulose) (HPC)
  T/C: 79 % of control
dose: 8.0 mg/kg/injection, schedule: Q04DX003 (ip), vehicle: Klucel (hydroxypropylcellulose) (HPC)
  T/C: 79 % of control
dose: 16.0 mg/kg/injection, schedule: Q04DX003 (ip), vehicle: Klucel (hydroxypropylcellulose) (HPC)
  T/C: 88 % of control

## O=C(Nc1cc(Cl)ccc1C(=O)O)c1cccc(C[n+]2ccccc2)c1
[5]
  T/C: 109 % of control
[6]
  T/C: 109 % of control
dose: 600.0 mg/kg/injection, schedule: Q04DX003 (ip), vehicle: saline with Tween-80
  T/C: 82 % of control

## Nc1ccn([C@@H]2C=C(CO)[C@@H](O)[C@H]2O)c(=O)n1
dose: 0.5 mg/kg/injection, schedule: Q01DX009 (ip), vehicle: saline
  T/C: 26 % of control
dose: 2.0 mg/kg/injection, schedule: Q01DX009 (ip), vehicle: saline
  T/C: 3 % of control

## C[C@]12CC[C@H]3[C@@H](CCC4=C[C@@H](OC5OCC(OC6OC(CO)C(O)C(O)C6O)C(O)C5O)CC[C@@]43C=O)[C@@]1(O)CCC2C1=CC(=O)OC1 (some centres not stated)
dose: 15.0 mg/kg/injection, schedule: Q04DX003 (sc), vehicle: Klucel (hydroxypropylcellulose) (HPC)
  T/C: 118 % of control

## Oc1ccc(CCl)c2cccnc12
dose: 75.0 mg/kg/injection, schedule: Q04DX003 (sc), vehicle: saline
  T/C: 120 % of control
dose: 150.0 mg/kg/injection, schedule: Q04DX003 (sc), vehicle: saline
  T/C: 99 % of control
dose: 300.0 mg/kg/injection, schedule: Q04DX003 (sc), vehicle: saline
  T/C: 87 % of control

## CCC1(O)C(=O)OCc2c1cc1n(c2=O)Cc2cc3cc(N)ccc3nc2-1 (configuration not stated)
dose: 1.88 mg/kg/injection, schedule: Q04DX003 (ip), vehicle: suspension in saline
  T/C: 5 % of control
dose: 3.75 mg/kg/injection, schedule: Q04DX003 (ip), vehicle: suspension in saline
  T/C: 1 % of control
dose: 7.5 mg/kg/injection, schedule: Q04DX003 (ip), vehicle: suspension in saline
  T/C: -100 % of control
dose: 15.0 mg/kg/injection, schedule: Q04DX003 (ip), vehicle: suspension in saline
  T/C: -100 % of control

## COc1ccc2c(c1)-c1nn(CCCN(C)C)c3ccc([N+](=O)[O-])c(c13)N2
dose: 12.5 mg/kg/injection, schedule: Q04DX003 (ip), vehicle: water
  T/C: 66 % of control and 79 % of control
dose: 25.0 mg/kg/injection, schedule: Q04DX003 (ip), vehicle: water
  T/C: 53 % of control and 56 % of control
dose: 50.0 mg/kg/injection, schedule: Q04DX003 (ip), vehicle: water
  T/C: 19 % of control and 38 % of control and 41 % of control
dose: 100.0 mg/kg/injection, schedule: Q04DX003 (ip), vehicle: water
  T/C: 13 % of control

## COc1ccc(N=C(C)C2C(=O)c3ccccc3C2=O)cc1
[1]
  T/C: 93 % of control
[2]
  T/C: 98 % of control
[3]
  T/C: 110 % of control
dose: 1200.0 mg/kg/injection, schedule: Q04DX003 (ip), vehicle: DMSO
  T/C: 105 % of control

## NC(CSSCC(N)C(=O)O)C(=O)O (configuration not stated)
[7]
  T/C: 88 % of control
[8]
  T/C: 92 % of control
dose: 1200.0 mg/kg/injection, schedule: Q04DX003 (ip), vehicle: saline
  T/C: 104 % of control
dose: 2400.0 mg/kg/injection, schedule: Q04DX003 (ip), vehicle: saline
  T/C: 80 % of control

## COc1nc(C(Cl)(Cl)Cl)c(Cl)c(OC)c1Cl
dose: 89.0 mg/kg/injection, schedule: Q04DX003 (oral), vehicle: Klucel (hydroxypropylcellulose) (HPC)
  T/C: -100 % of control
dose: 133.5 mg/kg/injection, schedule: Q04DX003 (oral), vehicle: Klucel (hydroxypropylcellulose) (HPC)
  T/C: -100 % of control
dose: 200.0 mg/kg/injection, schedule: Q04DX003 (oral), vehicle: Klucel (hydroxypropylcellulose) (HPC)
  T/C: -100 % of control
dose: 300.0 mg/kg/injection, schedule: Q04DX003 (oral), vehicle: Klucel (hydroxypropylcellulose) (HPC)
  T/C: -100 % of control
dose: 450.0 mg/kg/injection, schedule: Q04DX003 (oral), vehicle: Klucel (hydroxypropylcellulose) (HPC)
  T/C: -100 % of control

## CC(=O)C[n+]1ccccc1Sc1ccc(Cl)cc1
dose: 25.0 mg/kg/injection, schedule: Q04DX003 (ip), vehicle: saline with Tween-80
  T/C: 66 % of control
dose: 50.0 mg/kg/injection, schedule: Q04DX003 (ip), vehicle: saline with Tween-80
  T/C: 64 % of control
dose: 100.0 mg/kg/injection, schedule: Q04DX003 (ip), vehicle: saline with Tween-80
  T/C: 89 % of control

## NC(=O)SCC(N)C(=O)O (configuration not stated)
[7]
  T/C: 88 % of control
dose: 400.0 mg/kg/injection, schedule: Q04DX003 (sc), vehicle: saline
  T/C: 49 % of control
[8]
  T/C: 80 % of control
dose: 600.0 mg/kg/injection, schedule: Q04DX003 (sc), vehicle: saline
  T/C: 37 % of control and 52 % of control
dose: 750.0 mg/kg/injection, schedule: Q04DX003 (sc), vehicle: saline
  T/C: 53 % of control
dose: 900.0 mg/kg/injection, schedule: Q04DX003 (sc), vehicle: saline
  T/C: 16 % of control and 38 % of control

## COc1cc2c(c(OC)c1OC)-c1ccc(OC)c(=O)cc1[C@@H](NC(=O)CCl)CC2
dose: 0.5 mg/kg/injection, schedule: Q04DX003 (sc), vehicle: saline with Tween-80
  T/C: 87 % of control
dose: 1.0 mg/kg/injection, schedule: Q04DX003 (sc), vehicle: saline with Tween-80
  T/C: 43 % of control
dose: 2.0 mg/kg/injection, schedule: Q04DX003 (sc), vehicle: saline with Tween-80
  T/C: 8 % of control
dose: 4.0 mg/kg/injection, schedule: Q04DX003 (sc), vehicle: saline with Tween-80
  T/C: 1 % of control

## NCc1cc(O)c(O)c(O)c1
dose: 150.0 mg/kg/injection, schedule: Q04DX003 (ip), vehicle: water
  T/C: 99 % of control
dose: 300.0 mg/kg/injection, schedule: Q04DX003 (ip), vehicle: water
  T/C: 120 % of control
dose: 600.0 mg/kg/injection, schedule: Q04DX003 (ip), vehicle: water
  T/C: 89 % of control
dose: 1200.0 mg/kg/injection, schedule: Q04DX003 (ip), vehicle: water
  T/C: 91 % of control

## CN=NN(C)C(=O)NC
dose: 37.5 mg/kg/injection, schedule: Q04DX003 (ip), vehicle: saline
  T/C: 112 % of control
dose: 75.0 mg/kg/injection, schedule: Q04DX003 (ip), vehicle: saline
  T/C: 79 % of control
dose: 108.0 mg/kg/injection, schedule: Q04DX003 (ip), vehicle: saline
  T/C: 2 % of control
dose: 150.0 mg/kg/injection, schedule: Q04DX003 (ip), vehicle: saline
  T/C: 15 % of control
dose: 180.0 mg/kg/injection, schedule: Q04DX003 (ip), vehicle: saline with Tween-80
  T/C: 108 % of control
[7]
  T/C: -13 % of control
dose: 500.0 mg/kg/injection, schedule: Q04DX003 (ip), vehicle: saline with Tween-80
  T/C: 124 % of control

## C1CCC2C[N-]CCC2C1.C1CCC2C[N-]CCC2C1.C1CCC2C[N-]CCC2C1.C1CCC2C[N-]CCC2C1.[Cl][Rh][Cl] (configuration not stated)
dose: 72.0 mg/kg/injection, schedule: Q04DX003 (sc), vehicle: saline with Tween-80
  T/C: 112 % of control
dose: 144.0 mg/kg/injection, schedule: Q04DX003 (sc), vehicle: saline with Tween-80
  T/C: 124 % of control
dose: 576.0 mg/kg/injection, schedule: Q04DX003 (sc), vehicle: saline with Tween-80
  T/C: 67 % of control
